Read-outs that look alike come from different tables or passages of the source.
Tests used:
[1] = tested on: rat brain amino acid profile; assay: Effect on rat brain amino acid profile; type: in vivo, Sprague-Dawley rats; conditions: for GABA tissue content / GLUTAMATE tissue content / TAURINE tissue content: 10-30 min prior to sacrifice; for GABA tissue content / GLUTAMATE tissue content / TAURINE tissue content / RATIO GLU/TAU / RATIO GLY/GLU: average of three rats; for % change GABA / % change GLUTAMATE / % change RATIO GLU/TAU / % change RATIO GLY/GLU / % change TAURINE: dichlorotaurine vs taurine (control)
Description: Three Sprague-Dawley rats were each injected with taurine (200 mg/kg) (control), and another three Sprague-Dawley rats were each administered dichlorotaurine (200 mg/kg): one at 10 min (i.p.), one at 20 min (i.p.) and one at 30 min (i.v.) prior to sacrifice. The animals were anesthetized with ether and then sacrificied by cardiac perfusion with phosphate buffered saline for 5 min, before the brains were removed at room temp.
Brain regions were dissected by hand on a glass cold plate (4-6° C.). The samples were homogenized in 9× weight by volume of water, then perchloric acid was added to a final concentration of 0.6 M to precipitate proteins. Samples (20 μL) were neutralized with 15 μL 2M KHCO3. The extracts were centrifuged and supernatants were diluted with water 1:100. Amino acid analysis was performed by derivatization with o-phthaldialdehyde followed by liquid chromatography (Varian LC 5000 and Schoeffel FS 970 fluorometer). […] Identification and quantification by peak height was calibrated against a standard amino acid solution.
Data are shown in Table1, below, where each taurine (control) value and dichlorotaurine value is the average of the three respective rats. The amino acid values represent endogenous neural tissue content and not extracellular (release) concentrations. The most pronounced effects of the dichlorotaurine are on the cortex-hippocampus. The data are interpreted as directed towards reduced (↓) excitability. Moreover, the data provide evidence that administration of dichlorotaurine attenuates the pathological consequences of excessive glutamate release, which is known to occur under clinical conditions such as, for example, epilepsy, intractable pain disorders, Huntington's Disease, Parkinson's Disease, and abnormalities associated with CNS trauma (e.g., stroke, spinal cord injury, impact trauma).

mice = conditions: for behaviour following injection: mice (20 g), 200 mg/Kg
Description: Two other mice (20 g) received dichlorotaurine (0.1 mL=100 mg/Kg) s.c. at 60 min intervals for three hours.

[2] = Stability on storage and in water or solvents (TLC and NMR monitoring); type: physicochemical
Description: Taurine (1.5 g) was suspended in a mixture of methanol (50 mL) and 4 M aqueous hydrochloric acid (25 mL). To this was added in small aliquots 4-6% aqueous sodium hypochlorite (40 mL) with stirring. The taurine dissolved with evolution of gentle heat. After 2 h the solution was concentrated (below 30° C.) to a small volume. Ethanol (200 mL) was added and the precipitated sodium chloride was removed by filtration. This procedure was repeated until no more precipitate formed. After concentration to a small volume of oily residue, 50/50 methanol-ethyl acetate (100 mL) was added, and the mixture was again filtered to remove residual sodium chloride. Upon reconcentration, the residue was treated with 0.04 M aqueous hydrochloric acid in acetone (25 mL). Slow concentration yielded white, iridescent plates, (0.7 g). […] Detection was by spraying with 2% KI-starch (yellow-brown) followed by ethanolic ninhydrin (faintly pink); M.P. 148° C. UV (λmax) 310 nm (ε1.851×10^2, 95% ethanol); ^1Hmr (D2O) 3.05-3.2(2H, m) and 3.95-4.05(2H, m); MS (es−): 191.9(18.76%), 193.8 (13.41%), 195.8(2.83%).
(§1) The chlorinaton and desalting methodology was essentially similar to that for taurine. […] Final isolation was from 50/50 (^v/v) diethylether-methanol plus dichloromethane, followed by slow evaporation at approximately 0-4° C. M.P. 197° C.; UV: λmax 308 (ε1.486×10^2, 95% ethanol); ^1Hmr (D2O) δ: 2.05-2.15 (2H, m, αCH2), 2.95-3.05 (2H, m, βCH2), 3.9-4.0 (2H, m, γCH2); MS (es−): 205.9(1.4%), 207.9(0.88%), 210.0(0.31%).
N,N-dichloro-GABA: UV: λmax 308 nm (ε2.974×10^2, 95% ethanol); ^1Hmr (CDCl3) δ: 1.95-2.05 (2H, m,αCH2), 2.4-2.5 (2H, m, βCH2), 3.6-3.75 (2H, m, γCH2). Decomposition in water was about 50% in 3 h at room temperature (TLC monitored). […]
The procedure for the synthesis of N′N′-dichloro-leucine was identical to that for the dichloroGABA. The product is a pale-yellow oil. When stored in dichloromethane, at −10° C.; the compound readily decomposed with an approximate half-life of 1 h.
From the above Examples it is apparent that dichlorination of ω-amino acids yields products which vary considerably in their stability. […] The most important precaution required for stable storage is the removal of all traces of water. […] A yield of between 30-60% was obtained, which can be improved by more efficiently exploiting the fact that primary amines are far less soluble than their chlorinated products in non-polar solvents. Those of ordinary skill in the art will recognize that the methods for isolation of the chlorinated amino acids described here can be extended to other α-carboxyl amino acids, as well as peptides and proteins.

[3] = Solubility in nonpolar solvents; type: physicochemical; conditions: compared with taurine homologue
Description: as §1

[4] = frontal cortex, rats, 200 mg/kg
[5] = mice, 100 mg/Kg s.c. at 60 min intervals for three hours

SMILES: NCCS(=O)(=O)O [taurine, reference compound]
- GABA tissue content ([1]; brain stem, rats, 200 mg/kg): 2.25 nmoles/mg wet weight
- GLUTAMATE tissue content ([1]; brain stem, rats, 200 mg/kg): 8.20 nmoles/mg wet weight
- TAURINE tissue content ([1]; brain stem, rats, 200 mg/kg): 2.29 nmoles/mg wet weight
- RATIO GLU/TAU ([1]; brain stem, rats, 200 mg/kg): 3.73
- RATIO GLY/GLU ([1]; brain stem, rats, 200 mg/kg): 1.30
- GABA tissue content ([1]; cerebellum, rats, 200 mg/kg): 2.25 nmoles/mg wet weight
- GLUTAMATE tissue content ([1]; cerebellum, rats, 200 mg/kg): 11.32 nmoles/mg wet weight
- TAURINE tissue content ([1]; cerebellum, rats, 200 mg/kg): 5.38 nmoles/mg wet weight
- RATIO GLU/TAU ([1]; cerebellum, rats, 200 mg/kg): 2.15
- RATIO GLY/GLU ([1]; cerebellum, rats, 200 mg/kg): 0.48
- GABA tissue content [1, 4]: 2.28 nmoles/mg wet weight
- GLUTAMATE tissue content [1, 4]: 15.04 nmoles/mg wet weight
- TAURINE tissue content [1, 4]: 7.67 nmoles/mg wet weight
- RATIO GLU/TAU [1, 4]: 1.98
- RATIO GLY/GLU [1, 4]: 0.28
- GABA tissue content ([1]; hippocampus, rats, 200 mg/kg): 2.83 nmoles/mg wet weight
- GLUTAMATE tissue content ([1]; hippocampus, rats, 200 mg/kg): 13.82 nmoles/mg wet weight
- TAURINE tissue content ([1]; hippocampus, rats, 200 mg/kg): 7.38 nmoles/mg wet weight
- RATIO GLU/TAU ([1]; hippocampus, rats, 200 mg/kg): 1.91
- RATIO GLY/GLU ([1]; hippocampus, rats, 200 mg/kg): 0.36
- behaviour following injection (mice): normal behaviour

SMILES: O=C(O)CCCN(Cl)Cl [N,N-dichloro-GABA, N,N-dichloro-γ-aminobutyric Acid]
- relative stability when in contact with water [2]: the least stable
- Decomposition in water ([2]; 3 h at room temperature, TLC monitored): about 50%

SMILES: O=S(=O)(O)CCN(Cl)Cl [dichlorotaurine, N′N′-dichlorotaurine]
- relative stability when in contact with water [2]: the most
- stability when dry [2]: reasonably stable for up to a month
- storage stability [2]: stable for at least one month without appreciable decomposition
- decomposition in 95% ethanol ([2]; 95% ethanol, over 48 h): little or no decomposition
- stable in water ([2]; water, ambient temperature, TLC and NMR monitoring): at least 3 h
- interpretation ([1]; GABA changes): ↓ excitability
- interpretation ([1]; GLUTAMATE changes): ↓ excitability
- interpretation ([1]; RATIO GLU/TAU changes): ↓ excitability
- interpretation ([1]; RATIO GLY/GLU changes): ↓ excitability
- interpretation ([1]; TAURINE changes): ↓ excitability
- % change GABA ([1]; brain stem): — (±15% considered non-significant: no change)
- % change GLUTAMATE ([1]; brain stem): — (±15% considered non-significant: no change)
- % change RATIO GLU/TAU ([1]; brain stem): −33%
- % change RATIO GLY/GLU ([1]; brain stem): +19%
- % change TAURINE ([1]; brain stem): —* (±15% considered non-significant: no change)
- GABA tissue content ([1]; brain stem, rats, 200 mg/kg): 2.32 nmoles/mg wet weight
- GLUTAMATE tissue content ([1]; brain stem, rats, 200 mg/kg): 7.19 nmoles/mg wet weight
- TAURINE tissue content ([1]; brain stem, rats, 200 mg/kg): 2.63 nmoles/mg wet weight
- RATIO GLU/TAU ([1]; brain stem, rats, 200 mg/kg): 2.50
- RATIO GLY/GLU ([1]; brain stem, rats, 200 mg/kg): 1.55
- % change GABA ([1]; cerebellum): — (±15% considered non-significant: no change)
- % change GLUTAMATE ([1]; cerebellum): — (±15% considered non-significant: no change)
- % change RATIO GLU/TAU ([1]; cerebellum): — (±15% considered non-significant: no change)
- % change RATIO GLY/GLU ([1]; cerebellum): — (±15% considered non-significant: no change)
- % change TAURINE ([1]; cerebellum): — (±15% considered non-significant: no change)
- GABA tissue content ([1]; cerebellum, rats, 200 mg/kg): 1.97 nmoles/mg wet weight
- GLUTAMATE tissue content ([1]; cerebellum, rats, 200 mg/kg): 10.29 nmoles/mg wet weight
- TAURINE tissue content ([1]; cerebellum, rats, 200 mg/kg): 5.36 nmoles/mg wet weight
- RATIO GLU/TAU ([1]; cerebellum, rats, 200 mg/kg): 2.01
- RATIO GLY/GLU ([1]; cerebellum, rats, 200 mg/kg): 0.46
- % change GABA ([1]; frontal cortex): +29%
- % change GLUTAMATE ([1]; frontal cortex): −20%
- % change RATIO GLU/TAU ([1]; frontal cortex): −33%
- % change RATIO GLY/GLU ([1]; frontal cortex): +42%
- % change TAURINE ([1]; frontal cortex): +30%
- GABA tissue content [1, 4]: 2.93 nmoles/mg wet weight
- GLUTAMATE tissue content [1, 4]: 11.90 nmoles/mg wet weight
- TAURINE tissue content [1, 4]: 10.00 nmoles/mg wet weight
- RATIO GLU/TAU [1, 4]: 1.32
- RATIO GLY/GLU [1, 4]: 0.40
- % change GABA ([1]; hippocampus): +32%
- % change GLUTAMATE ([1]; hippocampus): — (±15% considered non-significant: no change)
- % change RATIO GLU/TAU ([1]; hippocampus): −24%
- % change RATIO GLY/GLU ([1]; hippocampus): +20%
- % change TAURINE ([1]; hippocampus): +52%
- GABA tissue content ([1]; hippocampus, rats, 200 mg/kg): 3.73 nmoles/mg wet weight
- GLUTAMATE tissue content ([1]; hippocampus, rats, 200 mg/kg): 15.76 nmoles/mg wet weight
- TAURINE tissue content ([1]; hippocampus, rats, 200 mg/kg): 11.22 nmoles/mg wet weight
- RATIO GLU/TAU ([1]; hippocampus, rats, 200 mg/kg): 1.45
- RATIO GLY/GLU ([1]; hippocampus, rats, 200 mg/kg): 0.43
- brain region of the most pronounced effects ([1]; rats, 200 mg/kg): cortex-hippocampus
- onset of severe ataxia, laboured breathing and grooming behaviour towards the site of injection (mice; male mice (20 g), 200 mg/Kg i.p.): ≤ 5 min
- behaviour following injection (mice): very quiet, showed strongly reduced responsiveness to environmental stimuli, and reduced mobility
- Onset of sedation following the first injection (mice; [5]): 5 min
- effect of the two subsequent injections on behaviour (mice; [5]): did not aggravate nor modify the tranquil behaviour
- time after last injection to start of return to normal behaviour (mice; [5]): Two to three hours
- Observation for the next 24 h (mice; mouse, in vivo, sc, 100 mg/kg): did not reveal any abnormalities

SMILES: O=S(=O)(O)CCCN(Cl)Cl [dichlorohomotaurine, N,N-dichlorohomotaurine]
- solubility in nonpolar solvents [3]: more soluble in nonpolar solvents
- hygroscopicity [2]: Fairly hygroscopic
- stability in a humid atmosphere ([2]; humid atmosphere, compared with taurine homologue): more unstable than its taurine homologue
- half-life ([2]; in water, read-out: t1/2 of decomposition to homotaurine (converted)): 1440 min
- melting point: 197 °C
- behaviour following injection (mice): almost indistinguishable from that observed with the taurine homologue

SMILES: CC(C)C[C@@H](C(=O)O)N(Cl)Cl [N′N′-dichloro-leucine, N,N-dichloro-L-leucine, reference compound]
- relative stability when in contact with water ([2]; in contact with water): the least stable
- half-life ([2]; stored in dichloromethane at −10° C., read-out: half-life of decomposition (converted)): ~60 min

SMILES: O=C(O)CCN(Cl)Cl [N,N-dichloro-β-alanine, N′N′-dichloro-β-alanine]
- relative stability in water or 95% ethanol [2]: More stable than N,N-dichloro-GABA

Source: patent US6451761B1, “N′N′-dichlorinated omega-amino acids and uses thereof” (Queen's University at Kingston, priority 1999, dated 2002)
